# Measurements reported in US20020040062A1, “Protein kinase C activators and their use in decreasing expression of cell antigens” (The Trustees of Columbia University, priority 1993, published 2002).
# Marks after values point to notes of the source that are not given here.
# B1: IFN-γ: recombinant human immune interferon produced in Escherichia coli (protein, UniProt P01579 24-161, looked up)
# Interferon gamma: QDPYVKEAENLKKYFNAGHSDVADNGTLFLGILKNWKEESDRKIMQSQIVSFYFKLFKNFKDDQSIQKSVETIKEDMNVKFFNSNKKKRDDFEKLTNYSVTDLNVQRKAIHELIQVMAELSPAAKTGKRKRSQMLFRG
# B2: IFN-β: recombinant human fibroblast interferon with a serine substituted for a cysteine at position 17 (protein, UniProt P01574 22-187, looked up, variant C17S)
# Interferon beta: MSYNLLGFLQRSSNFQSQKLLWQLNGRLEYCLKDRMNFDIPEEIKQLQQFQKEDAALTIYEMLQNIFAIFRQDSSSTGWNETIVENLLANVYHQINHLKTVLEEKLEKEDFTRGKLMSSLHLKRYYGRILHYLKAKEYSHCAWTIVRVEILRNFYFINRLTGYLRN
# Tests used:
# [1] = system: HLA Class II-DRβ antigen mRNA; experiment: Northern blotting, steady-state HLA Class II-DRβ mRNA in T47D cells; assay type: cell-based, human; conditions: 72 hr, 500 units/ml IFN-α or IFN-β, 50 units/ml IFN-γ, 0.1 μg/ml TPA, MEZ or ADMB, densitometry
# Method: FIG. 3: Effect of interferon, ADMB, TPA and MEZ, alone and in combination with H-7, on steady-state mRNA levels of HLA Class I antigens, HLA Class II-DRβ antigen, c-erbB-2, ICAM-1 and GAPDH in T47D human breast carcinoma cells. […] Cultures were also grown in the presence of 0.1 μg/ml of H-7 for 72 hr with and without the additional compounds indicated above. Total cytoplasmic RNA was isolated and processed as described in “Detailed Description Of The Invention.” Control: CON; recombinant human leukocyte interferon-A: IFN-αA; recombinant human fibroblast interferon: IFN-β; recombinant human immune interferon: IFN-γ; ADMB; 3-(N-acetylamino)-5-(N-decyl-N-methylamino)-benzyl alcohol; TPA; 12-0-tetradecanoyl-phorbol-13-acetate; MEZ; mezerein; H-7: (1-(5-isoquinolinesulfonyl)-2-methylpiperazine dihydrochloride.
# Steady-state levels of HLA Class I, HLA Class II-DRβ, c-erbB-2 and ICAM-I mRNA in control and treated T47D cells were determined by Northern blotting analysis of total cytoplasmic RNA probed with appropriate ^32P-labeled gene probes as previously described. Northern blots were also probed with a ^32P-labeled glyceraldehyde phosphate dehydrogenase (GAPDH) gene probe to verify equal […] under various experimental conditions. Following hybridization, the filters were washed and exposed for autoradiography.
# HLA-DR = experiment: FACS analysis of HLA-DR (MoAb L243) in WiDr human colon carcinoma cells; assay type: cell-based
# Method: (§1) Cells were plated in 10 cm plates, media was changed 24 hours later with no addition (control) or addition of the indicated compounds and cells were incubated at 37° C. for the indicated time (72 or 96 hours). Cells were resuspended using 10× EDTA and antigen expression was determined as described (Leon, Mesa-Tejada, Gutierrez, Estabrook, Greiner, Schlom & Fisher: Anticancer Res. 9:1639-1648, 1989; Leon, Gutierrez, Jiang, Estabrook, Waxman & Fisher: Cancer Immunol. Immmunother. 35:315-324, 1992).
# CA19.9 = experiment: FACS analysis of CA19.9 (MoAb B67.4) in WiDr human colon carcinoma cells; assay type: cell-based
# Method: as §1
# MoAb K56 = experiment: FACS analysis of MoAb K56 binding in CBS human colon carcinoma cells; assay type: cell-based; conditions: 96 hours
# Method: as §1, with “for” for “for the indicated time (72 or”, “hours.” for “hours).”, “Breiner,” for “Greiner,”, “Immuno. Immunother. 35:315-324” for “Immunol. Immmunother. 35:315-324,”
# c-erbB-2 = experiment: FACS analysis of c-erbB-2 surface expression in T47D cells; assay type: cell-based, human; conditions: 72 hr; for c-erbB-2 level of upregulation versus untreated control cells (equivalent to 1.0) / Antigenic Expression (MFI) c-erbB-2: 0.1 μg/ml TPA or MEZ; for c-erbB-2 level of upregulation versus untreated control cells (equivalent to 1.0): presence or absence of 0.1 μg/ml H-7; for Antigenic Expression (MFI) c-erbB-2: presence or absence of 0.1 μg/ml H-7, FACStar
# Excerpt: (§2) IgG1 murine monoclonal antibody Cu18 and Cu46 recognize two different epitopes of a highly restricted breast carcinoma associated glycoprotein of Mr 225,000 to 250,000 (BCA 225). This TAA is expressed intracytoplasmically and on the membrane of 94% of breast tumors tested and in the T47D human breast carcinoma cell line. BCA 225 is shed into the culture medium by T47D cells and into the sera of breast cancer patients. IgG2a monoclonal antibody L243 (anti HLA Class II-DR) recognizes a monomorphic HLA Class II-DR-α epitope (ATCC M355). Monoclonal antibody CL203.4 [40], which recognizes ICAM-I, was kindly provided by Dr. S. Ferrone, New York Medical College, NY. The c-erbB-2 monoclonal antibody which recognizes the extracellular domain of c-erbB-2 was obtained from Triton Biosciences, Inc., Alamedia, Calif. Monoclonal antibodies Cu18 and Cu46 were used at 0.05 μg/ml and monoclonal antibodies interacting with HLA Class II-DR, ICAM-1 and c-erbB-2 were used at 10 μg/ml. For each experiment, isotype matched control backgrounds (IgG for Cu18, Cu46 and ICAM-1, IgG2a for HLA Class Ii and IgG2b for c-erbB-2) were subtracted from the experimental results. Background from antimouse IgG FITC antibody was also subtracted from experimental results. Applicants never observed backgrounds higher than 2% of total cells for isotypic mouse IgG or higher than 5% for antimouse IgG FITC.
# (§3) T47D cells treated with the various compounds were analyzed by flow cytometry using appropriate monoclonal antibody concentrations as described previously. Briefly, 1×10^5 cells were incubated with the test antibody for 30 min at 4° C., washed 3× with PBS and incubated with a goat a mouse F (ab)2 FITC conjugated test antibody at a 1:40 dilution for 30 min at 4° C. Cells were then washed 3× with PBS and analyzed on a FACStar (Beckon Dickinson, Mountain View, Calif.) or a Coulter Epics IV FACS (Coulter, Hialeah, Fla.). Results are expressed as mean fluorescence intensity (MFI) units which were determined as described previously. MFI=(mean channel fluorescence in fluorescence positive antibody-binding cells×% of fluorescence positive antibody-binding cells)−(mean channel fluorescence in unstained cells×% of fluorescence positive cells in the unstained population). All studies were performed a minimum of three or four times with duplicate samples in each experiment. Replicate samples within individual experiments varied by ≦10% and variation between experiments were generally ≦20%.
# ICAM-1 = experiment: FACS analysis of ICAM-1 surface expression in T47D cells; assay type: cell-based, human; conditions: 72 hr; for ICAM-1 level of upregulation versus untreated control cells (equivalent to 1.0): presence or absence of 0.1 μg/ml H-7; for ICAM-1 relative increase in expression versus untreated controls (equivalent to 1.0): presence or absence of 1.0 μg/ml H-7
# Excerpt: as §2, §3
# [2] = 72 Hour Treatment, ADMB 0.01 μg/ml
# [3] = 72 Hour Treatment, ADMB 0.1 μg/ml
# [4] = 72 Hour Treatment, ADMB 1.0 μg/ml
# [5] = 96 Hour Treatment, ADMB 0.01 μg/ml
# [6] = 96 Hour Treatment, ADMB 0.1 μg/ml
# [7] = 96 Hour Treatment, ADMB 1.0 μg/ml
# [8] = 0.1 μg/ml TPA or MEZ, presence or absence of 0.1 μg/ml H-7, FACStar
# [9] = 500 units/ml IFN-β or 50 units/ml IFN-γ
# [10] = 500 units/ml IFN-β or 50 units/ml IFN-γ, presence or absence of 1.0 μg/ml H-7, Coulter Epics IV FACS
# [11] = 72 Hour Treatment, MEZ 100 ng/ml, IFN-γ 100 U/ml
# [12] = 96 Hour Treatment, MEZ 100 ng/ml, IFN-γ 100 U/ml
Molecule,increase in HLA Class II-DR antigen mRNA levels [1],c-erbB-2 level of upregulation versus untreated control cells (equivalent to 1.0) (c-erbB-2),Antigenic Expression (MFI) c-erbB-2 (c-erbB-2),ICAM-1 level of upregulation versus untreated control cells (equivalent to 1.0) (ICAM-1; 0.1 μg/ml TPA or MEZ),Antigenic Expression (MFI) ICAM-1 (ICAM-1; [8]),ICAM-1 relative increase in expression versus untreated controls (equivalent to 1.0) (ICAM-1; [9]),Antigenic Expression (MFI) ICAM-1 (ICAM-1; [10]),Monoclonal Antibody Binding (MFI) MoAb L243 (HLA-DR) (HLA-DR; [11]),Monoclonal Antibody Binding (MFI) MoAb L243 (HLA-DR) (HLA-DR; [12]),Monoclonal Antibody Binding (MFI) MoAb B67.4 (CA19.9) (CA19.9; [11]),Monoclonal Antibody Binding (MFI) MoAb B67.4 (CA19.9) (CA19.9; [12]),"Monoclonal Antibody Binding (MFI) MoAb K56 (MoAb K56; MEZ 1100 ng/ml, IFN-γ 100 U/ml)",further results
"CCCCCCCCCCN(C)c1cc(CO)cc(NC(C)=O)c1 [ADMB, 3-(N-acetylamino)-5-(N-decyl-N-methylamino)-benzyl alcohol]",did not increase,–,–,–,–,–,–,–,–,–,–,–,Monoclonal Antibody Binding (MFI) MoAb L243 (HLA-DR) (HLA-DR; [2]): 390 MFI; Monoclonal Antibody Binding (MFI) MoAb L243 (HLA-DR) (HLA-DR; [3]): 317 MFI; Monoclonal Antibody Binding (MFI) MoAb L243 (HLA-DR) (HLA-DR; [4]): 486* MFI; Monoclonal Antibody Binding (MFI) MoAb L243 (HLA-DR) (HLA-DR; [5]): 434 MFI; Monoclonal Antibody Binding (MFI) MoAb L243 (HLA-DR) (HLA-DR; [6]): 615* MFI; Monoclonal Antibody Binding (MFI) MoAb L243 (HLA-DR) (HLA-DR; [7]): 806* MFI; Monoclonal Antibody Binding (MFI) MoAb B67.4 (CA19.9) (CA19.9; [2]): 1136 MFI; Monoclonal Antibody Binding (MFI) MoAb B67.4 (CA19.9) (CA19.9; [3]): 1172 MFI; Monoclonal Antibody Binding (MFI) MoAb B67.4 (CA19.9) (CA19.9; [4]): 1400* MFI; Monoclonal Antibody Binding (MFI) MoAb B67.4 (CA19.9) (CA19.9; [5]): 1512 MFI; Monoclonal Antibody Binding (MFI) MoAb B67.4 (CA19.9) (CA19.9; [6]): 2028* MFI; Monoclonal Antibody Binding (MFI) MoAb B67.4 (CA19.9) (CA19.9; [7]): 2417* MFI; Monoclonal Antibody Binding (MFI) MoAb K56 (MoAb K56; ADMB 0.01 μg/ml): 2126 MFI; Monoclonal Antibody Binding (MFI) MoAb K56 (MoAb K56; ADMB 0.1 μg/ml): 1715 MFI; Monoclonal Antibody Binding (MFI) MoAb K56 (MoAb K56; ADMB 1.0 g/ml): 2420 MFI
"CC1CNCCN1S(=O)(=O)c1cccc2cnccc12.Cl.Cl (centres unmarked) [H-7, 1-(5-isoquinolinesulfonyl)-2-methylpiperazine dihydrochloride]",–,(1.0),"7,045 MFI",(1.0),"21,538 MFI",1.0,"54,080 MFI",–,–,–,–,–,–
"C=C(C)[C@@]12O[C@@]3(c4ccccc4)O[C@@H]1[C@@H]1[C@@H]4O[C@]4(CO)[C@@H](O)[C@]4(O)C(=O)C(C)=C[C@H]4[C@@]1(O3)[C@H](C)[C@H]2OC(=O)/C=C/C=C/c1ccccc1 [MEZ, mezerein]",1.2 fold,(2.6),"18,385 MFI",(4.1),"85,745 MFI",–,–,1120* MFI,2129* MFI,1914* MFI,4784* MFI,3002* MFI,"efficacy of upregulation of c-erbB-2 (fold-change in MFI, FIG. 2) (c-erbB-2; 0.1 μg/ml of ADMB, TPA or MEZ): most effective PKC activator tested"
"CCCCCCCCCCCCCC(=O)O[C@@H]1[C@@H](C)[C@@]2(O)[C@@H](C=C(CO)C[C@]3(O)C(=O)C(C)=C[C@@H]23)[C@H]2C(C)(C)[C@]12OC(C)=O [TPA, 12-0-tetradecanoyl-phorbol-13-acetate]",did not increase,(2.3),"16,100 MFI",(3.0),"63,175 MFI",–,–,–,–,–,–,–,–
B1,1.25 fold,–,–,–,–,3.5,"191,490 MFI",1724* MFI,2376* MFI,2271* MFI,3191* MFI,3126* MFI,activity in increasing Class II HLA-DR antigens relative to ADMB (HLA-DR): approximately 3 ×
B2,1.2 fold,–,–,–,–,1.8,"97,013 MFI",–,–,–,–,–,–
